# Laboratory results taken from US20130309380A1, “METHODS FOR PRESERVING FRESH PRODUCE” (NatureSeal, Inc., priority 2003, published 2013).
# Columns and labels:
# Granny Smith apples = assay: Evaluation of sliced Granny Smith apples preserved with fresh produce preservative (scores); settings: scale to 10
# Bramley apples = assay: Water released by sliced Bramley apples
# Protocol: The firmness of the produce in Example 11a were evaluated by bending produce samples. Appearance was evaluated by visual inspection. The moisture was evaluated by measuring the amount of water the produce released.
# Whole Bramley apples free from blemishes or bruises, were rinsed with water, sanitized with a sodium hypochlorite solution having 100 parts per million available chlorine, for two minutes, then peeled, cored, and sliced. The sliced apples were dipped into a fresh produce preservative solution that contained 5.12% strontium ascorbate; the fresh produce preservative solution contained 4.12% ascorbic acid and 1.79% […], for about 30 to 60 seconds. The apples were then drained in a colander for one minute. The apple slices and the colander were placed in 500 micron plastic bags from SunSet Packaging, stored at 4° C. and evaluated several times over a 15 day period. Water which collected in the plastic bag was removed and weighed.
# For comparison, similarly prepared apple slices were placed in one of several solutions that contained either: 4.3% ascorbic acid and 1.13% hydrated MgCO3, specifically 4MgCO3.Mg(OH)25H2O or a 5.0% w/w aqueous solution of calcium ascorbate dihydrate, having a pH of 7.2; or a 5.3% w/w solution, of 4.12% ascorbic acid and 1.17% calcium carbonate,; or 6% ascorbic acid having a pH of 2.3; or 48 g ascorbic acid, 48 g citric acid, 16 g CaCl2 and 48 g NaCl in 800 g water, with a pH of 1.2; or 6% w/w citric acid and 6% w/w ascorbic acid; or 4.64% sodium ascorbate having 4.13% ascorbic acid and 1.18% NaCo3. […]
# Red Delicious apples = assay: Evaluation of sliced Red Delicious apples preserved with fresh produce preservative (scores); settings: for Color / Flavor / Moistness / Texture: scale 0-10; for color/appearance score: scale to 10
# Protocol: (§1) The texture, flavor, and moistness of the fruit were evaluated by tasting fruit samples. The color and/or appearance was also evaluated by visual inspection. The color, texture, moistness and flavor were then evaluated according to a scale of either 1 to 10, with 10 being the value assigned to a freshly cut piece of comparative fruit or vegetable. A value of less than 7 is not acceptable.
# (§2) Whole Red Delicious apples were rinsed with tap water, sanitized with a sodium hypochlorite solution containing 100 ppm chlorine, then cored and sliced. The apple slices were immersed in water for 0.5 to 2 minutes. Then the apple slices were dipped into produce preservative solution containing 4% ascorbic acid and 1.59% K2CO3 having a pH 5.69 for 1 minute. The slices were removed from the solution and drained for 1-2 minutes, sealed in polyethylene bags, and stored at 2-5° C. For controls, sliced apples either not treated or were dipped into either 4% ascorbic acid with 0.66% NaOH to adjust the pH to 4.45. For comparison, sliced apples were dipped into a solution containing 4% ascorbic acid and 1.22% Na2CO3 and having a pH of 5.58.
# The apples were evaluated and scored on a scale of 0-10 at time intervals. A score of 10 means that the fruit's color and appearance is as good as fresh cut fruit. A score of 7 is the minimum acceptable appearance. Hardness was measured with QTS25.
# Red Delicious apples and Granny Smith apples were preserved with the fresh produce preservative as in Example 1 a, except that the preservative solution contained 4% ascorbic acid and 1% Li2CO3.
# Bartlett pears = assay: Evaluation of sliced Bartlett pears preserved with fresh produce preservative (scores); set-up: key: 1–10 scale, 10 = freshly cut fruit; below 7 not acceptable; settings: for Color / Flavor / Moistness / Texture: scale to 10; for color/appearance score: scale to 10 (Table 5)
# Protocol: as §1, §2
# Bartlett pears were preserved with the fresh produce preservative as in Example 1a, with preservative solution that contained 4% ascorbic acid and 1.59% K2-CO3. For comparison, pears were treated with a comparative solution that contained 4% ascorbic acid and 1.22% Na2CO3.
# Bartlett pears were preserved with the fresh produce preservative as in Example 1a, except that the preservative solution contained 4% ascorbic acid and 1% Li2CO3.
# Hass avocadoes = assay: Evaluation of sliced Hass avocadoes preserved with fresh produce preservative (scores)
# Protocol: as §1, §2
# Hass avocadoes were preserved with the fresh produce preservative as in Example 1a, except that the preservative solution contained 9.3% ascorbic acid and 5.7% MnCl2.4H2O.
# Sliced Hass avocadoes were preserved with the fresh produce preservative as in Example la, except that the preservative solution contained 6.5% ascorbic acid and 3.5% potassium chloride. For control, a 7% ascorbic acid solution was used.
compound,measurement,setting,value
"O=C1O[C@H]([C@@H](O)CO)C(O)=C1O [Ascorbic Acid, ascorbic acid]",color/appearance score,Granny Smith apples; 1 week,6
same,color/appearance score,Granny Smith apples; 1 day,10
same,color/appearance score,Granny Smith apples; 3 days,10
same,Water Released,Bramley apples; 4 hr at 4° C.,6.78 g
same,Water Released,Bramley apples; 28 hr at 4° C.,5.34 g
same,Water Released,Bramley apples; 52 hr at 4° C.,4.19 g
same,Water Released,Bramley apples; 94 hr at 4° C.,2.94 g
same,Water Released,Bramley apples; 191 hr at 4° C.,2.63 g
same,Color,Red Delicious apples; 0 hour,10
same,Flavor,Red Delicious apples; 0 hour,5
same,Moistness,Red Delicious apples; 0 hour,10
same,Texture,Red Delicious apples; 0 hour,10
same,Color,Red Delicious apples; 1 week at 2-5° C.,9.6
same,Flavor,Red Delicious apples; 1 week at 2-5° C.,7
same,Moistness,Red Delicious apples; 1 week at 2-5° C.,10
same,Texture,Red Delicious apples; 1 week at 2-5° C.,7.8
same,color/appearance score,Red Delicious apples; 1 week,6
same,Color,Red Delicious apples; 2 week at 2-5° C.,8.4
same,Flavor,Red Delicious apples; 2 week at 2-5° C.,7
same,Moistness,Red Delicious apples; 2 week at 2-5° C.,9
same,Texture,Red Delicious apples; 2 week at 2-5° C.,7
same,Color,Red Delicious apples; 1 day at 2-5° C.,10
same,Flavor,Red Delicious apples; 1 day at 2-5° C.,8
same,Moistness,Red Delicious apples; 1 day at 2-5° C.,10
same,Texture,Red Delicious apples; 1 day at 2-5° C.,9.8
same,color/appearance score,Red Delicious apples; 24 hours (app),9
same,color/appearance score,Red Delicious apples; 3 days,9
same,Color,Bartlett pears; 0 hour,10
same,Flavor,Bartlett pears; 0 hour,5
same,Moistness,Bartlett pears; 0 hour,10
same,Texture,Bartlett pears; 0 hour,10
same,Color,Bartlett pears; 1 week,8.6
same,Flavor,Bartlett pears; 1 week,8.8
same,Moistness,Bartlett pears; 1 week,7
same,Texture,Bartlett pears; 1 week,3
same,Color,Bartlett pears; 2 weeks,6.4
same,Flavor,Bartlett pears; 2 weeks,3.4
same,Texture,Bartlett pears; 2 weeks,1
same,Color,Bartlett pears; 1 day,10
same,Flavor,Bartlett pears; 1 day,9
same,Moistness,Bartlett pears; 1 day,10
same,Texture,Bartlett pears; 1 day,9.6
same,color/appearance score,Bartlett pears; 1 day,10
same,color/appearance score,Bartlett pears; 2 days,6
same,color/appearance score,"Hass avocadoes; 1 day, scale to 10 (Table 6), listed as 6% Ascorbic Acid control, 6% Ascorbic Acid control",6
same,color/appearance score,"Hass avocadoes; 1 day, scale to 10 (Table 6), listed as 7% Ascorbic Acid control, 7% Ascorbic Acid control",7
same,color/appearance score,"Hass avocadoes; 1 day, scale to 10 (Table 6), listed as 8% Ascorbic Acid control, 8% Ascorbic Acid control",8.5
same,color/appearance score,"Hass avocadoes; 1 day, scale to 10 (Table 7)",7
same,color/appearance score,"Hass avocadoes; 2 days, scale to 10 (Table 7)",6
same,color/appearance score,"Hass avocadoes; 4 days, scale to 10 (Table 6)",6
